Patent US7674819B2 (Warner-Lambert Company LLC, priority 2005, dated 2010)
Read-outs that look alike come from different tables or passages of the source.

Target: T1, androgen receptor (Homo sapiens, UniProt P10275)
T1 sequence (P10275 1-920 Q868H): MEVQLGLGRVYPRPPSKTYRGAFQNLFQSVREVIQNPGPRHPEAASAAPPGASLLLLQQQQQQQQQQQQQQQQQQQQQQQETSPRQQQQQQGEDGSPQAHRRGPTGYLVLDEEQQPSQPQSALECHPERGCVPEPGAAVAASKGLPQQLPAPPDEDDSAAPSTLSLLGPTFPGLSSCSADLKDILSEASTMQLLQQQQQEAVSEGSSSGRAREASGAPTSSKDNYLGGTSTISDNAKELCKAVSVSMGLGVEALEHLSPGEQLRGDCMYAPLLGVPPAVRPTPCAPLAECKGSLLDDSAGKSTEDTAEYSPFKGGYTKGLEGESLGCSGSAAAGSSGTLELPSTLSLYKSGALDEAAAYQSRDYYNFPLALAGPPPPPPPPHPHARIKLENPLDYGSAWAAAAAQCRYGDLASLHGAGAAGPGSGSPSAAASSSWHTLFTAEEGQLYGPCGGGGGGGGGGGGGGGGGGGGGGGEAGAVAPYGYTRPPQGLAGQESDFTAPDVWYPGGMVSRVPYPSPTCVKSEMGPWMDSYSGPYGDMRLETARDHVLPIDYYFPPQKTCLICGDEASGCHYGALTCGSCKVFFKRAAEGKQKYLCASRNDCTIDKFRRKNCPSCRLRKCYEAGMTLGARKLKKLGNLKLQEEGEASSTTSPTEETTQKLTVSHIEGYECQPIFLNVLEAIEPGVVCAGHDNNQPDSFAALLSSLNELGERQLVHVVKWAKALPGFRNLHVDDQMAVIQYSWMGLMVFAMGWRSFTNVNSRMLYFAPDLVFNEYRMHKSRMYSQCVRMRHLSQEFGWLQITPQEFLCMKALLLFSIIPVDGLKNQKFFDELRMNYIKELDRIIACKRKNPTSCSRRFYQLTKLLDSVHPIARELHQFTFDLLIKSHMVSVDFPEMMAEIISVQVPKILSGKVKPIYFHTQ
Test: AR Antagonist Cell Assay (MDA-MB453-MMTV clone 54-19, luciferase reporter)
Type: cell-based
Settings: inhibition of induction by DHT (final concentration at 100 μM), 17 hr, compound 0.32-1000 nM, mean of multiple tests
Procedure, shortened: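 MDA-MB453 breast tumour cells stably carrying an ARE-containing MMTV promoter driving firefly luciferase, plated overnight at 37° C in charcoal-treated serum medium. DHT added (final […]) and incubated 17 hr at 37° C. Luminescence read after adding luciferase buffer; values are means of multiple tests.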

Row | Structure (SMILES) | IC50 | IC50 (read-out: IC50)
1 | CCCCN1CC(C)(C)C(Oc2ccc(C#N)c(C(F)(F)F)c2)C1=O (single isomer, unassigned; (+)) [Example 20, (+)-4-(1-Butyl-4,4-dimethyl-2-oxo-pyrrolidin-3-yloxy)-2-trifluoromethyl-benzonitrile] | 13 nM | 
2 | CCCS(=O)(=O)N1CC(C)(C)C(Oc2ccc(C#N)c(C(F)(F)F)c2)C1=O (single isomer, unassigned; (+)) [Example 82, (+)-4-[4,4-Dimethyl-2-oxo-1-(propane-1-sulfonyl)-pyrrolidin-3-yloxy]-2-trifluoromethyl-benzonitrile] | 56 nM | 
3 | CC[C@H](C)N1CC(C)(C)[C@@H](Oc2ccc(C#N)c(C(F)(F)F)c2)C1=O [Example 1, (3R,S)-(+)-4-(1-sec-Butyl-4,4-dimethyl-2-oxo-pyrrolidin-3-yloxy)-2-trifluoromethyl-benzonitrile] | 33 nM | 
4 | CCCN1CC(C)(C)C(Oc2ccc(C#N)c(C(F)(F)F)c2)C1=O (stereo not shown) [Example 4, 4-(4,4-dimethyl-2-oxo-1-propyl-pyrrolidin-3-yloxy)-2-trifluoromethyl-benzonitrile] | 26 nM | 
5 | CCCN1CC(C)(C)[C@@H](Oc2ccc(C#N)c(C(F)(F)F)c2)C1=O [Example 4A, (+)-4-(1-Propyl-4,4-dimethyl-2-oxo-pyrrolidin-3-yloxy)-2-trifluoromethyl-benzonitrile (E2)] | 92 nM | 
6 | CC1(C)CN(S(C)(=O)=O)C(=O)C1Oc1ccc(C#N)c(C(F)(F)F)c1 (stereo not shown) [Example 81, 4-(1-methanesulfonyl-4,4-dimethyl-2-oxo-pyrrolidin-3-yloxy)-2-trifluoromethyl-benzonitrile] |  | 199 nM
7 | CC(c1ccccc1)N1CC(C)(C)C(Oc2ccc(C#N)cc2Cl)C1=O (stereo not shown) [Example 109] |  | 14 nM
